The values below come from patent US9127001B2, “Substituted 4,5,6,7-tetrahydro-1H-pyrazolo[4,3-c]pyridines, their use as medicament, and pharmaceutical preparations comprising them” (Sanofi, priority 2011, dated 2015).

pIC50: −log10 of the molar value.

The test addresses Human TASK-1 channels (Homo sapiens (Human), UniProt O14649). The experiment in a line: Activity on the TASK-1 channel in Xenopus oocytes (two-microelectrode voltage clamp). The format is cell-based. Conditions: for pIC50: human TASK-1 expressed in Xenopus oocytes, currents during pulses to 40 mV, room temperature. As for the experimental part:
Human TASK-1 channels were expressed in Xenopus oocytes. For this purpose, oocytes were isolated from Xenopus laevis and defoliculated. Subsequently, TASK-1-encoding RNA synthesized in vitro was injected into oocytes. […] Data were acquired and analyzed using a TEC-10cx amplifier (NPI Electronic, Tamm, Germany) connected to an ITC-16 interface (Instrutech Corp., Long Island, USA) and Pulse software (HEKA Elektronik, Lambrecht, Germany). […] Oocytes were continuously superfused with ND96 buffer containing: NaCl 96 mM, KCl 2 mM, CaCl2 1.8 mM, MgCl2 1 mM, HEPES 5 mM (pH adjusted to 7.4 with NaOH). All experiments were performed at room temperature.
Test substances were consecutively added to the bath solution at rising concentrations. […] IC50 values were obtained by fitting the data to the general dose-response equation.

Chain of Human TASK-1 channels (O14649 whole entry, the tested form may be a part): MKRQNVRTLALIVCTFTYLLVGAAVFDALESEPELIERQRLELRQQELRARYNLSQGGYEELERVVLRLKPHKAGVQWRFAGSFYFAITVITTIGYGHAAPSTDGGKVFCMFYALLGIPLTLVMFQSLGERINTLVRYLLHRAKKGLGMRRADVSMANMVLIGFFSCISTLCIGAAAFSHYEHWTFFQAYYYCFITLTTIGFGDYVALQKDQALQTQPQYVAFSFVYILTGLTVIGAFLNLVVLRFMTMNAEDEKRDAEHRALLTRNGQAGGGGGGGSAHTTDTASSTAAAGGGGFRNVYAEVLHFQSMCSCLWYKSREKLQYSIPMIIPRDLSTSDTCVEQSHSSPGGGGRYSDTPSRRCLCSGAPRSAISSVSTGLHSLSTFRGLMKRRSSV

Molecule `CC(=O)N1CCc2c(c(-c3cccc(C)c3)nn2Cc2ccccc2F)C1` [Example 6bb, 1-[1-(2-Fluoro-benzyl)-3-m-tolyl-1,4,6,7-tetrahydro-pyrazolo[4,3-c]pyridin-5-yl]-ethanone] came in with an inhibition at 5 µM of 82%.

For the molecule `COc1ccccc1Cn1nc(-c2cccc(C(F)(F)F)c2)c2c1CCN(C(C)=O)C2` [Example 6bc, 1-[1-(2-Methoxy-benzyl)-3-(3-trifluoromethyl-phenyl)-1,4,6,7-tetrahydro-pyrazolo[4,3-c]pyridin-5-yl]-ethanone], 5 µM produced 70% inhibition. In turn, `COc1cccc(Cn2nc(-c3cccc(Cl)c3)c3c2CCN(C(C)=O)C3)c1` [Example 6bd, 1-[3-(3-Chloro-phenyl)-1-(3-methoxy-benzyl)-1,4,6,7-tetrahydro-pyrazolo[4,3-c]pyridin-5-yl]-ethanone] gave a pIC50 greater than 5.00. The same measure, in the same setting: with `CC(=O)N1CCc2c(c(-c3ccc(F)cc3)nn2Cc2ccc(Cl)c(F)c2)C1` [Example 6bg, 1-[1-(4-Chloro-3-fluoro-benzyl)-3-(4-fluoro-phenyl)-1,4,6,7-tetrahydro-pyrazolo[4,3-c]pyridin-5-yl]-ethanone] the figure was 6.40; with `COc1ccc(F)c(-c2nn(Cc3ccc(F)cc3F)c3c2CN(C(C)=O)CC3)c1` [Example 6bh, 1-[1-(2,4-Difluoro-benzyl)-3-(2-fluoro-5-methoxy-phenyl)-1,4,6,7-tetrahydro-pyrazolo[4,3-c]pyridin-5-yl]-ethanone], greater than 5.00. Molecule `CC(=O)N1CCc2c(c(-c3ccc(F)c(C#N)c3)nn2Cc2ccc(F)cc2F)C1` [Example 6bi, 5-[5-Acetyl-1-(2,4-difluoro-benzyl)-4,5,6,7-tetrahydro-1H-pyrazolo[4,3-c]pyridin-3-yl]-2-fluoro-benzonitrile] gave a pIC50 of 5.78. Molecule `CC(=O)N1CCc2c(c(-c3cccc(F)c3)nn2Cc2ccc(F)cc2F)C1` [Example 6bj, 1-[1-(2,4-Difluoro-benzyl)-3-(3-fluoro-phenyl)-1,4,6,7-tetrahydro-pyrazolo[4,3-c]pyridin-5-yl]-ethanone] had a pIC50 of 5.94.

Consider `CC(=O)N1CCc2c(c(-c3ccc(C(F)(F)F)cc3)nn2Cc2ccc(F)cc2F)C1` [Example 6bk, 1-[1-(2,4-Difluoro-benzyl)-3-(4-trifluoromethyl-phenyl)-1,4,6,7-tetrahydro-pyrazolo[4,3-c]pyridin-5-yl]-ethanone], for which the pIC50 is 5.94. `CC(=O)N1CCc2c(c(-c3cccc(C(F)(F)F)c3)nn2Cc2ccc(C)cc2F)C1` [Example 6bn, 1-[1-(2-Fluoro-4-methyl-benzyl)-3-(3-trifluoromethyl-phenyl)-1,4,6,7-tetrahydro-pyrazolo[4,3-c]pyridin-5-yl]-ethanone]: the inhibition at 5 µM is 81%. `CC(=O)N1CCc2c(c(-c3cccc(C(F)(F)F)c3)nn2Cc2cnccc2Cl)C1` [Example 6c, 1-[1-(4-Chloro-pyridin-3-ylmethyl)-3-(3-trifluoromethyl-phenyl)-1,4,6,7-tetrahydro-pyrazolo[4,3-c]pyridin-5-yl]-ethanone] showed a pIC50 of 6.67.

`CC(=O)N1CCc2c(c(-c3cccc(C(F)(F)F)c3)nn2Cc2ncccc2C)C1` [Example 6d, 1-[1-(3-Methyl-pyridin-2-ylmethyl)-3-(3-trifluoromethyl-phenyl)-1,4,6,7-tetrahydro-pyrazolo[4,3-c]pyridin-5-yl]-ethanone]: the pIC50 was 6.37. On the same count and under the same terms, to `CC(=O)N1CCc2c(c(-c3ccc(F)cc3)nn2Cc2ccc(F)cc2F)C1` [Example 6f, 1-[1-(2,4-Difluoro-benzyl)-3-(4-fluoro-phenyl)-1,4,6,7-tetrahydro-pyrazolo[4,3-c]pyridin-5-yl]-ethanone] belongs 6.22; to `CC(=O)N1CCc2c(c(-c3cccc(C(F)(F)F)n3)nn2Cc2ccc(F)cc2)C1` [Example 6g, 1-[1-(4-Fluoro-benzyl)-3-(6-trifluoromethyl-pyridin-2-yl)-1,4,6,7-tetrahydro-pyrazolo[4,3-c]pyridin-5-yl]-ethanone], 7.00. `CC(=O)N1CCc2c(c(-c3cc(C(F)(F)F)ccn3)nn2Cc2ccc(F)cc2F)C1` [Example 6h, 1-[1-(2,4-Difluoro-benzyl)-3-(4-trifluoromethyl-pyridin-2-yl)-1,4,6,7-tetrahydro-pyrazolo[4,3-c]pyridin-5-yl]-ethanone] showed a pIC50 of 6.72. The same measure, in the same setting: to `CC(=O)N1CCc2c(c(-c3cccc(C(F)(F)F)n3)nn2Cc2ccc(F)cc2F)C1` [Example 6i, 1-[1-(2,4-Difluoro-benzyl)-3-(6-trifluoromethyl-pyridin-2-yl)-1,4,6,7-tetrahydro-pyrazolo[4,3-c]pyridin-5-yl]-ethanone] belongs 6.67; to `CC(=O)N1CCc2c(c(-c3cc(Br)ccn3)nn2Cc2ccc(F)cc2F)C1` [Example 6j, 1-[3-(4-Bromo-pyridin-2-yl)-1-(2,4-difluoro-benzyl)-1,4,6,7-tetrahydro-pyrazolo[4,3-c]pyridin-5-yl]-ethanone], greater than 5.00.

In turn, `CC(=O)N1CCc2c(c(-c3ccnc(Br)c3)nn2Cc2ccc(F)cc2F)C1` [Example 6k, 1-[3-(2-Bromo-pyridin-4-yl)-1-(2,4-difluoro-benzyl)-1,4,6,7-tetrahydro-pyrazolo[4,3-c]pyridin-5-yl]-ethanone] had an inhibition at 5 µM of 78%. Take `CC(=O)N1CCc2c(c(-c3cncc(Br)c3)nn2Cc2ccc(F)cc2F)C1` [Example 6m, 1-[3-(5-Bromo-pyridin-3-yl)-1-(2,4-difluoro-benzyl)-1,4,6,7-tetrahydro-pyrazolo[4,3-c]pyridin-5-yl]-ethanone]: the pIC50 is 5.61. In the case of `CC(=O)N1C2CCC1c1c(-c3cccc(C#N)c3)nn(Cc3ccc(F)cc3F)c1C2` (stereo not shown) [Example 6n, 3-[11-Acetyl-5-(2,4-difluoro-benzyl)-4,5,11-triaza-tricyclo[6.2.1.02,6]undeca-2(6),3-dien-3-yl]-benzonitrile], the pIC50 was 7.04.

On to `CC(=O)N1C2CCC1c1c(-c3ccc(F)cc3)nn(Cc3ccc(F)cc3F)c1C2` (stereo not shown) [Example 6o, 1-[5-(2,4-Difluoro-benzyl)-3-(4-fluoro-phenyl)-4,5,11-triaza-tricyclo [6.2.1.02,6]undeca-2(6),3-dien-11-yl]-ethanone], for which the pIC50 was greater than 5.00.

`CC(=O)N1CCc2c(c(-c3cccc(C)c3)nn2Cc2ccc(Cl)nc2)C1` [Example 6p, 1-[1-(6-Chloro-pyridin-3-ylmethyl)-3-m-tolyl-1,4,6,7-tetrahydro-pyrazolo[4,3-c]pyridin-5-yl]-ethanone] displayed an inhibition at 5 µM of 88%. `COc1ccnc(Cn2nc(-c3cccc(C(F)(F)F)c3)c3c2CCN(C(C)=O)C3)c1` [Example 6q, 1-[1-(4-Methoxy-pyridin-2-ylmethyl)-3-(3-trifluoromethyl-phenyl)-1,4,6,7-tetrahydro-pyrazolo[4,3-c]pyridin-5-yl]-ethanone] displayed an inhibition at 5 µM of 70%. In turn, `CC(=O)N1CCc2c(c(-c3cccc(C)c3)nn2Cc2cnccc2Cl)C1` [Example 6r, 1-[1-(4-Chloro-pyridin-3-ylmethyl)-3-m-tolyl-1,4,6,7-tetrahydro-pyrazolo[4,3-c]pyridin-5-yl]-ethanone] gave an inhibition at 5 µM of 79%. Take `COc1cccnc1Cn1nc(-c2cccc(C(F)(F)F)c2)c2c1CCN(C(C)=O)C2` [Example 6s, 1-[1-(3-Methoxy-pyridin-2-ylmethyl)-3-(3-trifluoromethyl-phenyl)-1,4,6,7-tetrahydro-pyrazolo[4,3-c]pyridin-5-yl]-ethanone]: at 5 µM the inhibition was 83%. `CC(=O)N1CCc2c(c(-c3cccc(Cl)c3)nn2Cc2ncccc2C)C1` [Example 6t, 1-[3-(3-Chloro-phenyl)-1-(3-methyl-pyridin-2-ylmethyl)-1,4,6,7-tetrahydro-pyrazolo[4,3-c]pyridin-5-yl]-ethanone] gave an inhibition at 5 µM of 62%. The same measure, in the same setting: with `CC(=O)N1CCc2c(c(-c3cccc(C(F)(F)F)n3)nn2C(C)c2ccc(F)cc2)C1` (stereo not shown) [Example 6u, 1-[1-[1-(4-Fluoro-phenyl)-ethyl]-3-(6-trifluoromethyl-pyridin-2-yl)-1,4,6,7-tetrahydro-pyrazolo[4,3-c]pyridin-5-yl]-ethanone] the figure was 89%; with `CC(=O)N1CCc2c(c(-c3cccc(C)n3)nn2Cc2ccc(F)cc2F)C1` [Example 6v, 1-[1-(2,4-Difluoro-benzyl)-3-(6-methyl-pyridin-2-yl)-1,4,6,7-tetrahydro-pyrazolo[4,3-c]pyridin-5-yl]-ethanone], 73%. `CC(=O)N1CCc2c(c(-c3cccc(Br)n3)nn2Cc2ccc(F)cc2F)C1` [Example 6w, 1-[3-(6-Bromo-pyridin-2-yl)-1-(2,4-difluoro-benzyl)-1,4,6,7-tetrahydro-pyrazolo[4,3-c]pyridin-5-yl]-ethanone]: the pIC50 is greater than 5.00. Turning to `CC(=O)N1CCc2c(c(-c3cc(C)ccn3)nn2Cc2ccc(F)cc2F)C1` [Example 6x, 1-[1-(2,4-Difluoro-benzyl)-3-(4-methyl-pyridin-2-yl)-1,4,6,7-tetrahydro-pyrazolo[4,3-c]pyridin-5-yl]-ethanone], the inhibition at 5 µM was 82%. `COc1cccc(-c2nn(Cc3ccc(F)cc3F)c3c2CN(C(C)=O)CC3)n1` [Example 6y, 1-[1-(2,4-Difluoro-benzyl)-3-(6-methoxy-pyridin-2-yl)-1,4,6,7-tetrahydro-pyrazolo[4,3-c]pyridin-5-yl]-ethanone]: at 5 µM the inhibition was 86%. `COc1ccc(-c2nn(Cc3ccc(F)cc3F)c3c2CN(C(C)=O)CC3)nc1Cl` [Example 6z, 1-[3-(6-Chloro-5-methoxy-pyridin-2-yl)-1-(2,4-difluoro-benzyl)-1,4,6,7-tetrahydro-pyrazolo[4,3-c]pyridin-5-yl]-ethanone] yielded an inhibition at 5 µM of 75%.
